# Measurements as given in US20110071158A1, “NEW COMPOUNDS” (BOEHRINGER INGELHEIM INTERNATIONAL GMBH, priority 2009, published 2011).
# Target: T1, PTK2 enzyme (Homo sapiens, UniProt Q05397)
# T1 construct: purchased Invitrogen PV3832
# Assay: PTK2 enzyme test, Assay 1 (DELFIA, poly-Glu-Tyr substrate, antibody PT60)
# Type: biochemical
# Settings: Assay 1 (values without *); 1 h pre-incubation, 2% DMSO
# Method: This test uses active PTK2 enzyme (Invitrogen Code PV3832) and poly-Glu-Tyr (4:1, Sigma P-0275) as the kinase substrate. The kinase activity is detected through the phosphorylation of the substrate in a DELFIA™ assay. The phosphorylated substrate is detected with the europium-labelled phosphotyrosine antibody PT60 (Perkin Elmer, No.: AD00400).
# In order to determine concentration-activity curves with PTK2-inhibitors the compounds are serially diluted in 10% DMSO/H2O and 10 μL of each dilution are placed in each well of a 96-well microtitre plate (clear plate with a U-shaped base, Greiner No. 650101) (the inhibitors are tested in duplicates) and mixed with 10 μL/well of PTK2 kinase (0.01 μg/well). PTK2 kinase has been correspondingly diluted beforehand with kinase dilution buffer (20 mM TRIS/HCl pH 7.5, 0.1 mM EDTA, 0.1 mM EGTA, 0.286 mM sodium orthovanadate, 10% glycerol with the addition of freshly prepared BSA (fraction V, 1 mg/mL) and DTT (1 mM)). The test compound and the PTK2 kinase are pre-incubated for 1 h at RT and shaken at 500 revolutions per min. The reaction is started by the addition of 10 μL/well poly (Glu,Tyr) substrate (25 μg/well poly (Glu, Tyr), 0.05 μg/well biotinylated poly (Glu,Tyr) dissolved in 250 mM TRIS/HCl pH 7.5, 9 mM DTT)—the final concentration of DMSO is 2%. Then 20 μL of ATP Mix (30 mM TRIS/HCl pH 7.5, 0.02% Brij, 0.2 mM sodium orthovanadate, 10 mM magnesium acetate, 0.1 mM EGTA, 1× phosphatase inhibitor cocktail 1 (Sigma, No.: P2850), 50 μM ATP (Sigma, No.: A3377; 15 mM stock solution)) are added. After 1 h of kinase reaction (the plates are shaken at 500 rpm), the reaction is stopped by the addition of 12 μL/well 100 mM EDTA, pH 8.0 and shaken for a further 5 min at RT (500 rpm). 55 μL of the reaction mixture are transferred into a streptavidin plate (Strepta Well High Bind (transparent, 96-well) made by Roche, No.: 11989685001) and incubated for 1 h at RT (shaking at 500 rpm). Then the microtitre plate is washed three times with 200 μL/well D-PBS (Invitrogen, No. 14190). 100 μL of a solution containing DELFIA Eu-N1 Anti-Phosphotyrosine PT60 antibody (Perkin Elmer, No.: AD0040, diluted 1:2000 in DELFIA test buffer (Perkin Elmer, No.: 1244-111)) is then added and the mixture is incubated for 1 h at RT (shaking at 500 rpm). Then the plate is washed three times with 200 μL/well DELFIA washing buffer (Perkin Elmer, No.: 1244-114), 200 μL/well strengthening solution (Perkin Elmer, No.: 1244-105) are added and the mixture is incubated for 10 min at RT (shaking at 300 rpm).
# The time-delayed europium fluorescence is then measured in a microtitre plate reader (VICTOR^3, Perkin Elmer). […] Wells that contain test buffer instead of enzyme are used as a control of the background kinase activity.
# The IC50 values are determined from analyses of the concentration activity by iterative calculation with the aid of a sigmoid curve analysis algorithm (FIFTY, based on Graph PAD Prism Version 3.03) with a variable Hill coefficient.
# T1 sequence (Q05397 whole entry): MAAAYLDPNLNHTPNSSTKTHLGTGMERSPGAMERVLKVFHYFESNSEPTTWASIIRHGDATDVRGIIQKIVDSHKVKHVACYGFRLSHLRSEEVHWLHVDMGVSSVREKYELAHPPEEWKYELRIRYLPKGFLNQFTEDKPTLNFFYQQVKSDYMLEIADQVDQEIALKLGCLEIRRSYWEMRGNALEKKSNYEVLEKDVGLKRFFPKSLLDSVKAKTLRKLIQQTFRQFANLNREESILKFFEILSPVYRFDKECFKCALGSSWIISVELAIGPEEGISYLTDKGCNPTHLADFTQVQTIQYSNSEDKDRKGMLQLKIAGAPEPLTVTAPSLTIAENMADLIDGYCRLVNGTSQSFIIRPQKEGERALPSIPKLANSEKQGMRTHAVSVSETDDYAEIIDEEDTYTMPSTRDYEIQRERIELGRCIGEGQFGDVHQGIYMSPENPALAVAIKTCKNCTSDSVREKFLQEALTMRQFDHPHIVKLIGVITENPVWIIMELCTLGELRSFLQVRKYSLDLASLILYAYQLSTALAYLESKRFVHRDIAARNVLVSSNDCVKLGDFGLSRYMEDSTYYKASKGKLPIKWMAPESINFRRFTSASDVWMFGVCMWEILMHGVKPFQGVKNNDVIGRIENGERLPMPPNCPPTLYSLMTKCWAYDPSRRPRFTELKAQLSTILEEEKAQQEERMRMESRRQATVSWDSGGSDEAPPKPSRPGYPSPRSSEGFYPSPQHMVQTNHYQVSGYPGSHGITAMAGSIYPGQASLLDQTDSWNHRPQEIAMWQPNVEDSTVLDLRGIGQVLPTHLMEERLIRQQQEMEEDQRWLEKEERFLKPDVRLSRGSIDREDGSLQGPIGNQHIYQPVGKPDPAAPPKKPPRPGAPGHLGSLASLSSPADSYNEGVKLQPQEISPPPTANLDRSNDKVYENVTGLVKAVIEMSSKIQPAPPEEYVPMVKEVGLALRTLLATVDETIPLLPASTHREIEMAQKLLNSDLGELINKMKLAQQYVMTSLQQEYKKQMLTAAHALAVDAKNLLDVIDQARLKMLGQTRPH
row,SMILES,IC50
1,"COCC(=O)N(C)[C@@H]1CCCC[C@H]1Nc1nc(Nc2ccc(C(=O)NC3CCN(C)CC3)cc2OC)ncc1C(F)(F)F [Example I-3, 3-methoxy-4-(4-{(1R,2R)-2-[(2-methoxy-acetyl)-methyl-amino]-cyclohexylamino}-5-trifluoromethyl-pyrimidin-2-ylamino)-N-(1-methyl-piperidin-4-yl)-benzamide]",10 nM
2,"COc1ccccc1Nc1ncc(Cl)c(N[C@@H]2CCCC[C@H]2NC(C)=O)n1 [Example I-4, N-{(1R,2R)-2-[5-chloro-2-(2-methoxy-phenylamino)-pyrimidin-4-ylamino]-cyclohexyl}-acetamide]",9 nM
3,COc1cc(C(=O)NC2CCN(C)CC2)ccc1Nc1ncc(C(F)(F)F)c(N[C@@H]2CCCC[C@@H]2NC(C)=O)n1 [Example I-5],19 nM
4,COc1cc(C(=O)N(C)C)ccc1Nc1ncc(C(F)(F)F)c(N[C@@H]2CCCC[C@H]2NC(C)=O)n1 [Example I-13],18 nM
5,COc1cc(C(=O)NC2CCN(C)CC2)ccc1Nc1ncc(C(F)(F)F)c(N[C@@H]2CCCC[C@H]2NC(=O)CC(C)C)n1 [Example I-14],32 nM
6,COc1cc(C(=O)NC2CCN(C)CC2)ccc1Nc1ncc(C(F)(F)F)c(N[C@@H]2CCCC[C@H]2NC(=O)CN(C)C)n1 [Example I-17],15 nM
7,COc1cc(C(=O)NC2CCN(C)CC2)ccc1Nc1ncc(C(F)(F)F)c(N[C@@H]2CCCC[C@H]2NC(=O)NC(C)(C)C)n1 [Example I-18],46 nM
8,COc1cc(C(=O)NC2CCN(C)CC2)ccc1Nc1ncc(C(F)(F)F)c(N[C@@H]2CCCC[C@H]2NC(=O)C2CCCC2)n1 [Example I-22],15 nM
9,CCN(CC)C(=O)CN[C@@H]1CCCC[C@H]1Nc1nc(Nc2ccc(C(=O)NC3CCN(C)CC3)cc2OC)ncc1C(F)(F)F [Example I-24],24 nM
10,CCN(CC)C(=O)CN[C@@H]1CCCC[C@H]1Nc1nc(Nc2cc(F)c(C(=O)NC3CCN(C)CC3)cc2OC)ncc1C(F)(F)F [Example I-25],24 nM
11,COc1cc(C(=O)NC2CCN(C)CC2)ccc1Nc1ncc(C(F)(F)F)c(N[C@@H]2CCCC[C@H]2NCC(=O)N(C)OC)n1 [Example I-26],23 nM
12,COc1cc(N2CCN(C)CC2)ccc1Nc1ncc(C(F)(F)F)c(N[C@@H]2CCCC[C@H]2NC(=O)CN(C)C)n1 [Example I-32],21 nM
13,COc1cc(N2CCN(C)CC2)ccc1Nc1ncc(C(F)(F)F)c(N[C@@H]2CCCC[C@H]2NC(=O)CC(C)C)n1 [Example I-33],70 nM
14,COc1cc(C(=O)NC2CCN(C)CC2)ccc1Nc1ncc(C(F)(F)F)c(N[C@@H]2CCCC[C@H]2N(C)C)n1 [Example I-34],71 nM
15,COc1cc(C(=O)NC2CCN(C)CC2)ccc1Nc1ncc(C(F)(F)F)c(N[C@H]2CCCC[C@@H]2NC(C)=O)n1 [Example I-35],81 nM
16,COc1cc(C(=O)NC2CCOCC2)ccc1Nc1ncc(C(F)(F)F)c(N[C@H]2CCCC[C@@H]2NC(C)=O)n1 [Example I-36],400 nM
17,COc1cc(C(=O)NC2CCCN(C)C2)ccc1Nc1ncc(C(F)(F)F)c(N[C@H]2CCCC[C@@H]2NC(C)=O)n1 (stereo partly drawn) [Example I-37],400 nM
18,CCN1CCC(NC(=O)c2ccc(Nc3ncc(C(F)(F)F)c(N[C@H]4CCCC[C@@H]4NC(C)=O)n3)c(OC)c2)CC1 [Example I-38],400 nM
19,COc1cc(C(=O)N(C)C)ccc1Nc1ncc(Br)c(N[C@@H]2CCCC[C@H]2NC(C)=O)n1 [Example I-49],10 nM

# These reach a lower IC50. Values come first.
row,IC50,SMILES
1,1 nM,"CCC(=O)N[C@@H]1CCCC[C@H]1Nc1nc(Nc2ccc(C(=O)NC3CCN(C)CC3)cc2OC)ncc1C(F)(F)F [Example I-1, 3-methoxy-N-(1-methyl-piperidin-4-yl)-4-[4-((1R,2R)-2-propionylamino-cyclohexylamino)-5-trifluoromethyl-pyrimidin-2-ylamino]-benzamide]"
2,3 nM,"COc1cc(C(=O)NC(C)C)ccc1Nc1ncc(C(F)(F)F)c(N[C@@H]2CCCC[C@H]2NC(C)=O)n1 [Example I-2, 4-[4-(2-acetylamino-cyclohexylamino)-5-trifluoromethyl-pyrimidin-2-ylamino]-N-isopropyl-3-methoxy-benzamide]"
3,4 nM,CNC(=O)c1ccc(Nc2ncc(C(F)(F)F)c(N[C@@H]3CCCC[C@H]3NC(C)=O)n2)c(OC)c1 [Example I-6]
4,3 nM,CCNC(=O)c1ccc(Nc2ncc(C(F)(F)F)c(N[C@@H]3CCCC[C@H]3NC(C)=O)n2)c(OC)c1 [Example I-7]
5,2 nM,CCN1CCC(NC(=O)c2ccc(Nc3ncc(C(F)(F)F)c(N[C@@H]4CCCC[C@H]4NC(C)=O)n3)c(OC)c2)CC1 [Example I-8]
6,3 nM,COc1cc(C(=O)NC2CCCN(C)C2)ccc1Nc1ncc(C(F)(F)F)c(N[C@@H]2CCCC[C@H]2NC(C)=O)n1 (stereo partly drawn) [Example I-10]
7,2 nM,COc1cc(C(=O)NC2CCN(C)CC2)ccc1Nc1ncc(C(F)(F)F)c(N[C@@H]2CCCC[C@H]2NC(C)=O)n1 [Example I-11]
8,3 nM,COc1cc(C(=O)NC2CCN(C)CC2)ccc1Nc1ncc(C(F)(F)F)c(N[C@@H]2CCCC[C@H]2NC(=O)C(C)C)n1 [Example I-12]
9,3 nM,CCNC(=O)N[C@@H]1CCCC[C@H]1Nc1nc(Nc2ccc(C(=O)NC3CCN(C)CC3)cc2OC)ncc1C(F)(F)F [Example I-15]
10,4 nM,COc1cc(C(=O)NC2CCN(C)CC2)ccc1Nc1ncc(C(F)(F)F)c(N[C@@H]2CCCC[C@H]2NC(=O)C(C)(C)C)n1 [Example I-16]
11,4 nM,CCCC(=O)N[C@@H]1CCCC[C@H]1Nc1nc(Nc2ccc(C(=O)NC3CCN(C)CC3)cc2OC)ncc1C(F)(F)F [Example I-19]
12,1 nM,COc1cc(C(=O)NC2CCN(C)CC2)ccc1Nc1ncc(C(F)(F)F)c(N[C@@H]2CCCC[C@H]2NC(=O)C2CC2)n1 [Example I-20]
13,4 nM,COCC(=O)N[C@@H]1CCCC[C@H]1Nc1nc(Nc2ccc(C(=O)NC3CCN(C)CC3)cc2OC)ncc1C(F)(F)F [Example I-21]
14,3 nM,COc1cc(C(=O)NC2CCN(C)CC2)ccc1Nc1ncc(C(F)(F)F)c(N[C@@H]2CCCC[C@H]2NC(=O)C2CCC2)n1 [Example I-23]
15,6 nM,COc1cc(C(=O)NC2CCN(C)CC2)c(F)cc1Nc1ncc(C(F)(F)F)c(N[C@@H]2CCCC[C@H]2NCC(=O)N(C)OC)n1 [Example I-27]
16,1 nM,COc1cc(N2CCN(C)CC2)ccc1Nc1ncc(C(F)(F)F)c(N[C@@H]2CCCC[C@H]2NC(C)=O)n1 [Example I-29]
17,5 nM,COc1cc(N2CCN(C)CC2)ccc1Nc1ncc(C(F)(F)F)c(N[C@@H]2CCCC[C@H]2NC(=O)C(C)C)n1 [Example I-30]
18,5 nM,COCC(=O)N[C@@H]1CCCC[C@H]1Nc1nc(Nc2ccc(N3CCN(C)CC3)cc2OC)ncc1C(F)(F)F [Example I-31]
19,2 nM,CNC(=O)c1ccc(Nc2ncc(C(F)(F)F)c(N[C@@H]3CCCC[C@H]3NC(C)=O)n2)c(OC)c1 [Example I-39]
20,2 nM,COc1cc(C(=O)NC2CCCN(C)C2)ccc1Nc1ncc(C(F)(F)F)c(N[C@@H]2CCCC[C@H]2NC(C)=O)n1 (stereo partly drawn) [Example I-41]
21,2 nM,COc1cc(C(=O)NC2CCOCC2)ccc1Nc1ncc(Br)c(N[C@@H]2CCCC[C@H]2NC(C)=O)n1 [Example I-44]
22,1 nM,COc1cc(C(=O)NC2CCCN(C)C2)ccc1Nc1ncc(Br)c(N[C@@H]2CCCC[C@H]2NC(C)=O)n1 (stereo partly drawn) [Example I-45]
23,2 nM,CNC(=O)c1ccc(Nc2ncc(Br)c(N[C@@H]3CCCC[C@H]3NC(C)=O)n2)c(OC)c1 [Example I-46]
24,0.96 nM,COc1cc(C(=O)NCCN(C)C)ccc1Nc1ncc(Br)c(N[C@@H]2CCCC[C@H]2NC(C)=O)n1 [Example I-47]
25,2 nM,CCNC(=O)c1ccc(Nc2ncc(Br)c(N[C@@H]3CCCC[C@H]3NC(C)=O)n2)c(OC)c1 [Example I-48]
26,1 nM,COc1cc(C(=O)NC2CCN(C)CC2)ccc1Nc1ncc(Br)c(N[C@@H]2CCCC[C@H]2NC(C)=O)n1 [Example I-50]
